From ChEMBL document CHEMBL5244209, “Antiplasmodial and antimalarial activities of quinolone derivatives: An overview” (Eur J Med Chem, 2018)
In brackets after ≈: the same amount, converted by molar mass.

Columns and labels:
[1] = tested on: FM3A; test: Cytotoxicity against mouse FM3A cells; format: functional, cell-based
[2] = tested on: Plasmodium falciparum; test: Antimalarial activity against chloroquine-sensitive Plasmodium falciparum 3D7; format: functional, organism-based
[3] = tested on: Plasmodium falciparum; test: Antiplasmodial activity against Plasmodium falciparum Tm90-C2B infected in human Erythrocyte measured after 72 hrs by SYBR green fluorescence dye based microplate reader analysis; format: functional, organism-based
[4] = tested on: Plasmodium falciparum; test: Antiplasmodial activity against Plasmodium falciparum Dd2 infected in human Erythrocyte measured after 72 hrs by SYBR green fluorescence dye based microplate reader analysis; format: functional, organism-based
[5] = tested on: Plasmodium falciparum; test: Antiplasmodial activity against Plasmodium falciparum D6 infected in human Erythrocyte measured after 72 hrs by SYBR green fluorescence dye based microplate reader analysis; format: functional, organism-based
[6] = tested on: Plasmodium falciparum; test: Antimalarial activity against Antimalarial activity against chloroquine-sensitive Plasmodium falciparum FCR-3; format: functional, organism-based
[7] = tested on: Plasmodium falciparum; test: Antimalarial activity against chloroquine-sensitive Plasmodium falciparum FCC1 measured after 48 hrs; format: functional, organism-based; conditions: FCC1, 48 h
[8] = tested on: Plasmodium falciparum; test: Antimalarial activity against chloroquine-resistant Plasmodium falciparum VNS measured after 48 hrs; format: functional, organism-based
[9] = tested on: Plasmodium falciparum; test: Antiplasmodial activity against chloroquine-resistant Plasmodium falciparum Fcb1; format: functional, organism-based
[10] = tested on: Plasmodium berghei; test: Antiplasmodial activity against liver stage Plasmodium berghei ANKA infected in human HepG2 cells measured after 44 hrs; format: functional, organism-based; conditions: HepG2, 44 h
[11] = tested on: Plasmodium falciparum; test: Antiplasmodial activity against synchronized Plasmodium falciparum K1; format: functional, organism-based
[12] = tested on: Plasmodium falciparum; test: Antiplasmodial activity against chloroquine-sensitive Plasmodium falciparum K1 measured after 96 hrs; format: functional
[13] = tested on: Plasmodium falciparum; test: Antiplasmodial activity against chloroquine-sensitive Plasmodium falciparum FC measured after 96 hrs; format: functional
[14] = tested on: Plasmodium falciparum; test: Antiplasmodial activity against synchronized Plasmodium falciparum CS2; format: functional, organism-based
[15] = tested on: Plasmodium falciparum; test: Antiplasmodial activity against chloroquine-sensitive Plasmodium falciparum FC measured after 48 hrs; format: functional
[16] = tested on: Plasmodium falciparum; test: Antiplasmodial activity against synchronized Plasmodium falciparum 3D7; format: functional, organism-based
[17] = tested on: Plasmodium falciparum; test: Antiplasmodial activity against chloroquine-sensitive Plasmodium falciparum; format: functional, organism-based
[18] = tested on: Plasmodium falciparum; test: Antiplasmodial activity against asynchronous Plasmodium falciparum 3D7; format: functional, organism-based
[19] = tested on: Plasmodium falciparum; test: Antiplasmodial activity against asynchronous Plasmodium falciparum CS2; format: functional, organism-based
[20] = tested on: Plasmodium falciparum; test: Antiplasmodial activity against asynchronous Plasmodium falciparum K1; format: functional, organism-based
[21] = tested on: Plasmodium falciparum; test: Antimalarial activity against blood stage chloroquine-sensitive Plasmodium falciparum NF54-R infected in erythrocytes assessed as reduction in parasite growth preincubated for 72 hrs followed by addition of [3H]Hypoxanthine and measured after 24 hrs by liquid scintillation counting method; format: functional, organism-based; conditions: Erythrocyte
[22] = tested on: Plasmodium falciparum; test: Antiplasmodial activity against chloroquine-resistant Plasmodium falciparum; format: functional, organism-based
[23] = tested on: Plasmodium yoelii yoelii; test: Antimalarial activity against hepatic stage Plasmodium yoelii yoelii 265 BY for 48 hrs with media renew every 24 hrs; format: functional, organism-based
[24] = tested on: Plasmodium falciparum; test: Antiplasmodial activity against chloroquine-resistant Plasmodium falciparum K1 measured after 48 hrs; format: functional
[25] = tested on: Plasmodium falciparum; test: Antimalarial activity against blood stage chloroquine-sensitive Plasmodium falciparum 3D7 infected in erythrocytes assessed as reduction in parasite growth preincubated for 72 hrs followed by addition of [3H]Hypoxanthine and measured after 24 hrs by liquid scintillation counting method; format: functional, organism-based; conditions: 3D7, Erythrocyte
[26] = tested on: Plasmodium falciparum; test: Antiplasmodial activity against chloroquine-sensitive Plasmodium falciparum 3D7 infected in human erythrocyte incubated for 72 hrs by SYBR green I staining based fluorescence assay; format: functional, organism-based; conditions: 3D7, Erythrocyte
[27] = tested on: Plasmodium falciparum; test: Antiplasmodial activity against chloroquine-resistant Plasmodium falciparum Palo Alto; format: functional, organism-based
[28] = tested on: Plasmodium falciparum; test: Antiplasmodial activity against chloroquine-sensitive Plasmodium falciparum 3D7; format: functional, organism-based
[29] = tested on: Plasmodium falciparum; test: Antiplasmodial activity against chloroquine-resistant Plasmodium falciparum FCR3; format: functional, organism-based
[30] = tested on: Plasmodium falciparum; test: Antiplasmodial activity against chloroquine-resistant Plasmodium falciparum W2; format: functional, organism-based
[31] = tested on: Plasmodium falciparum; test: Antiplasmodial activity against chloroquine-resistant Plasmodium falciparum Bres1; format: functional, organism-based

SMILES: CCOC(=O)/C(=C\n1cc(C(=O)OCC)c(=O)c2cc(F)ccc21)c1ccncc1
- IC50 [1]: > 24 µM
- IC50 [2]: 8.2 µM

SMILES: CCCCCCCc1c(C)[nH]c2cc(OC(F)(F)F)ccc2c1=O
- IC50 [3]: 0.102 µM
- IC50 [4]: 86 nM
- IC50 [5]: 86 nM

SMILES: CCOC(=O)/C(=C\n1cc(C(=O)OCC)c(=O)c2cc(F)ccc21)c1cccnc1
- IC50 [1]: 100 µM
- IC50 [2]: 26 µM

SMILES: Cn1cc(C(=O)N/N=C/c2cccnc2)c(=O)c2cc(F)ccc21
- IC50 [6]: > 100 µM

SMILES: Cn1cc(C(=O)N/N=C/c2ccncc2)c(=O)c2cc(C(F)(F)F)ccc21
- IC50 [6]: > 100 µM

SMILES: Nc1ccc2c(=O)c3ccc(OCCCCCC(F)(F)F)cc3[nH]c2c1
- IC50 [3]: 0.078 µM
- IC50 [4]: 0.02 nM
- IC50 [5]: 0.02 nM

SMILES: CNn1cc(C(=O)O)c(=O)c2cc(F)c(N3CCN(C)CC3)cc21 [AMIFLOXACIN]
- IC50 [7]: 550 µM
- IC50 [8]: 870 µM

SMILES: C[C@@H]1CC[C@H]2[C@@H](C)C(=O)O[C@@H]3O[C@@]4(C)CC[C@@H]1[C@]32OO4 [ARTEMISININ]
- IC50 [3]: 0.0021 µM
- IC50 [4]: 0.6 nM
- IC50 [5]: 0.81 nM

SMILES: O=C1C(O)=C([C@H]2CC[C@H](c3ccc(Cl)cc3)CC2)C(=O)c2ccccc21 [ATOVAQUONE]
- IC50 [3]: 5.09 µM
- IC50 [4]: 0.5 nM
- IC50 [5]: 0.3 nM

SMILES: CC(C)=CCC/C(C)=C/CC/C(C)=C/Cc1c(C)[nH]c2ccccc2c1=O [AURACHIN D]
- IC50 [9]: 0.04 µg/mL (≈ 0.11 µM)

SMILES: CCN(CC)CCCC(C)Nc1ccnc2cc(Cl)ccc12 (stereo not drawn) [CHLOROQUINE]
- IC50 [10]: > 0.0012 µM

SMILES: O=C(O)c1cn(C2CC2)c2cc(N3CCNCC3)c(F)cc2c1=O [CIPROFLOXACIN]
- IC50 [7]: 260 µM
- IC50 [11]: 32 µM
- MIC [12]: 4.4 µg/mL (≈ 13.3 µM)
- MIC [13]: 2.8 µg/mL (≈ 8.45 µM)
- IC50 [14]: 20 µM
- MIC [15]: 28.1 µg/mL (≈ 84.8 µM)
- IC50 [16]: 31 µM
- IC50 [17]: 6.38 µg/mL (≈ 19.3 µM)
- IC50 [18]: 31 µM
- IC50 [19]: 24 µM
- IC50 [20]: 38 µM
- IC50 [21]: 3.4 µg/mL (≈ 10.3 µM)
- IC50 [22]: 6.38 µg/mL (≈ 19.3 µM)
- IC50 [8]: 380 µM
- IC50 [23]: 44 µg/mL (≈ 133 µM)
- MIC [24]: 27.2 µg/mL (≈ 82.1 µM)

SMILES: CCn1cc(C(=O)O)c(=O)c2cc(F)c(N3CCNCC3)nc21 [ENOXACIN]
- IC50 [7]: 800 µM
- IC50 [25]: 38.8 µg/mL (≈ 121 µM)
- IC50 [21]: 1.4 µg/mL (≈ 4.37 µM)
- IC50 [8]: 990 µM
- IC50 [23]: > 100 µg/mL

SMILES: C[C@H]1COc2c(N3CCN(C)CC3)c(F)cc3c(=O)c(C(=O)O)cn1c23.C[C@H]1COc2c(N3CCN(C)CC3)c(F)cc3c(=O)c(C(=O)O)cn1c23.O [LEVOFLOXACIN]
- IC50 [25]: 112 µg/mL
- IC50 [21]: 40.3 µg/mL
- IC50 [23]: > 100 µg/mL
- IC50 [26]: > 20 µM

SMILES: CCn1cc(C(=O)O)c(=O)c2ccc(C)nc21 [NALIDIXIC ACID]
- IC50 [25]: 117 µg/mL (≈ 502 µM)
- IC50 [21]: 59.1 µg/mL (≈ 254 µM)
- IC50 [23]: > 100 µg/mL
- IC50 [26]: > 20 µM

SMILES: CCn1cc(C(=O)O)c(=O)c2cc(F)c(N3CCNCC3)cc21 [NORFLOXACIN]
- IC50 [7]: 620 µM
- IC50 [11]: 67 µM
- IC50 [14]: 59 µM
- IC50 [27]: 54.1 µM
- IC50 [16]: 55 µM
- IC50 [17]: 11.2 µg/mL (≈ 35.2 µM)
- IC50 [25]: 17.2 µg/mL (≈ 53.9 µM)
- IC50 [28]: 55.3 µM
- IC50 [29]: 58.6 µM
- IC50 [30]: 74.6 µM
- IC50 [18]: 66 µM
- IC50 [19]: 55 µM
- IC50 [20]: 54 µM
- IC50 [21]: 6.7 µg/mL (≈ 21 µM)
- IC50 [22]: 11.2 µg/mL (≈ 35.2 µM)
- IC50 [8]: 510 µM
- IC50 [23]: 17.8 µg/mL (≈ 55.7 µM)

SMILES: CC1COc2c(N3CCN(C)CC3)c(F)cc3c(=O)c(C(=O)O)cn1c23 (stereo not drawn) [OFLOXACIN]
- IC50 [7]: 1720 µM
- IC50 [31]: 195 µM
- IC50 [27]: 114 µM
- IC50 [17]: 22.3 µg/mL (≈ 61.7 µM)
- IC50 [25]: 113 µg/mL (≈ 313 µM)
- IC50 [28]: 152 µM
- IC50 [29]: 158 µM
- IC50 [30]: 112 µM
- IC50 [21]: 58.6 µg/mL (≈ 162 µM)
- IC50 [22]: 22.3 µg/mL (≈ 61.7 µM)
- IC50 [8]: 1770 µM
- IC50 [23]: 64 µg/mL (≈ 177 µM)

SMILES: CCn1cc(C(=O)O)c(=O)c2cc3c(cc21)OCO3 [OXOLINIC ACID]
- IC50 [25]: 130 µg/mL (≈ 496 µM)
- IC50 [21]: 42.2 µg/mL (≈ 162 µM)
- IC50 [23]: > 100 µg/mL
- IC50 [26]: > 10 µM

SMILES: CCn1cc(C(=O)O)c(=O)c2cc(F)c(N3CCN(C)CC3)cc21 [PEFLOXACIN]
- IC50 [7]: 1300 µM
- IC50 [25]: 83.7 µg/mL (≈ 251 µM)
- IC50 [21]: 6.5 µg/mL (≈ 19.5 µM)
- IC50 [8]: 850 µM
- IC50 [23]: 86.3 µg/mL (≈ 259 µM)

SMILES: C=C[C@H]1CN2CC[C@H]1C[C@H]2[C@H](O)c1ccnc2ccc(OC)cc12 [QUININE]
- IC50 [6]: 0.11 µM
- IC50 [26]: 0.018 µM

SMILES: N[C@@H]1[C@H]2CN(c3nc4c(cc3F)c(=O)c(C(=O)O)cn4-c3ccc(F)cc3F)C[C@@H]12 [TROVAFLOXACIN]
- IC50 [11]: 18 µM
- IC50 [16]: 34 µM
- IC50 [25]: 9.6 µg/mL (≈ 23.1 µM)
- IC50 [18]: 36 µM
- IC50 [19]: 34 µM
- IC50 [20]: 33 µM
- IC50 [21]: 9.2 µg/mL (≈ 22.1 µM)
